Assay results published in patent US11752159B2, “Compositions and methods for suppressing or reducing systemic immune response in a subject” (THE TRUSTEES OF THE UNIVERSITY OF PENNSYLVANIA, priority 2015, dated 2023).

Key:
[1] = tested on: regulatory T cells (Tregs); assay: Topical MC903 on ear skin of wildtype mice, fraction of Tregs in skin, blood and lymphoid organs; format: in vivo; details: 2 nmol
Excerpt: FIGS. 1A-1B comprise graphs relating to topical treatment of B6 mice with EtOH or MC903 (2 nmol) on one ear. FIG. 1A, comprising FACS data and a graph, illustrates the percentage of regulatory T cells (Tregs) in the ear skin homogenate of B6 mice. “Treated” refers to topical administration of MC903 to the ear skin of the B6 mice. “Untreated” refers to topical administration of EtOH to the ear skin of the B6 mice. FIG. 1B comprises graphs illustrating the percentage of Tregs out of CD4+ T cells in the blood, spleen, and peripheral lymph nodes of B6 mice topically treated with MC903. FIG. 2 is a graph illustrating the percentage of Tregs out of CD4+ T cells in the spleen after B6 mice were treated topically or injected intraperitoneally with EtOH or MC903 (2 nmol). Wildtype (WT) mice were treated with vehicle (100% EtOH) or MC903 once a day on the skin of one ear for 7 days. On Day 8, the ear skin of both ears, blood, and secondary lymphoid organs (lymph nodes and spleen) were harvested.

C57BL6 mice = assay: High fat diet (HFD) type II diabetes mouse model, topical MC903; format: in vivo; details: topical three times a week every other week, vs ethanol
Procedure: FIG. 13 comprises a graph illustrating the finding that topical administration of MC903 improves overnight fasting glucose levels in mice fed with 12 weeks of high fat diet (HFD).
Topical administration of MC903 was evaluated in a model of high fat diet (HFD) type II diabetes mice. Male C57BL6 mice, which were 8 weeks at the onset of the study, were used. The mice were fed a high fat diet (45 kcal % of fat; research diet No. D12451, OpenSource Diets) for 20 weeks. During this period, the mice were topically administered ethanol or MC903 three times a week (Monday, Wednesday and Friday), every other week, for the duration of the experiment.

[2] = tested on: thymic stromal lymphopoietin (TSLP); assay: Circulating (serum) TSLP level over time after topical MC903; format: in vivo, mice; details: topical MC903, treatment stopped on Day 7; fell abruptly by Day 9
Excerpt: FIG. 3A-3C comprise graphs illustrating data derived from topical treatment of B6 mice with EtOH or MC903 (2 nmol) until […]. Mice were taken at different time points post treatment initiation as indicated. FIG. 3A is a graph illustrating the percentage of Tregs out of CD4+ T cells in the spleen and blood of B6 mice over 18 days. FIG. 3B illustrates the absolute numbers of Tregs in the spleen of B6 mice over 18 days. FIG. 3C illustrates the serum thymic stromal lymphopoietin (TSLP) level change over time in B6 mice over 18 days.
Next, the kinetics of the systemic increase in Treg levels was investigated after topical MC903 treatment (treatment stopped on Day 7). The absolute number and the fraction of Tregs increased to a peak between days 6 and 9 and gradually declined thereafter in the spleen and the blood of MC903-treated mice (FIGS. 3A-3B). Circulating TSLP levels peaked at Day 6 and fell abruptly by Day 9 (FIG. 3C).

Tregs = assay: Treg % in blood and spleen after topical vitamin D3 analogs; format: in vivo, mice; details: topical MC903, summary statement of Example 6
Excerpt: FIGS. 10A-10B comprise bar graphs illustrating data derived from topically treating mice with EtOH or EB1089 (0.04 nmol/ear) for 5 days and bleeding them on Day 7. Treg % from (FIG. 10A) blood and (FIG. 10B) spleen are illustrated. N=3 mice/group. *p<0.01 by Student t-test.
VDR stimulation of keratinocytes led to TSLP production, which in certain embodiments caused increase in Treg numbers. The effects of two vitamin D3 analogs (22-Oxacalcitriol, also known as 22-OXA, and EB1089) on TSLP production and Treg numbers were evaluated. Similarly to MC903, 22-OXA and EB1089 were applied to the ear skin bilaterally at a dose of 2 nmol/ear dissolved in ethanol. After 5 days of treatment, the mice were bled and serum TSLP levels were measured. […] To avoid the toxic effect, the dose of 22-OXA and EB1089 was lowered to a point where morbidity and mortality of mice was not observed (0.4 nmol/ear for 22-OXA; 0.04 nmol/ear for EB1089). At this dose, no increase in TSLP level was detected in 22-OXA-treated mice (FIG. 9B).

B6 mice [3] = assay: Experimental allergic encephalitis (EAE) mouse model of multiple sclerosis, topical MC903; format: in vivo; details: topical daily starting 1 day before disease induction, compared to EtOH-treated mice
Procedure: FIG. 7 illustrates the clinical score difference among B6 mice topically treated with EtOH or MC903 daily for 2 weeks. The B6 mice were injected with myelin oligodendrocyte glycoprotein (MOG) peptide emulsified in complete Freund's adjuvant (CFA), then received Pertussis toxin intraperitoneally at the time of immunization and 48 h later. The mice were treated with topical EtOH or MC903 daily for 2 weeks. Mice were clinically scored on a five-point scale for signs of disease on the indicated days. N=8 mice/group. P=0.06 by two-way Analysis of variance (ANOVA). To test whether topical MC903 treatment was effective at treating multiple sclerosis (MS), the effect of MC903 in reducing clinical severity of a mouse model of MS known as experimental allergic encephalitis (EAE). Mice were topically treated daily with MC903 starting 1 day before disease induction. […] Thus, topical MC903 treatment might also be beneficial in the treatment of multiple sclerosis.

B6 mice [4] = assay: K/BxN serum-induced arthritis mouse model, topical MC903; format: in vivo
Procedure: FIGS. 8A-8B comprise graphs illustrating data derived from injecting B6 mice with 75 μl of serum from K/B×N mice on Days 0 and 2, and topically treating the mice with MC903 starting at Day 0. FIG. 8A illustrates the percentage of Tregs in blood of B6 mice determined on Day 8 post MC903 treatment in comparison with EtOH treatment. FIG. 8B illustrates the change of ankle thickness over time after B6 mice were injected with 75 μl of serum from K/B×N mice on Days 0 and 2, and were topically treated with MC903 starting at Day 0. Ankle thickness was measured twice a week and plotted as % maximal ankle thickness of each mouse. N=3 mice/group. Whether MC903 treatment can attenuate joint swelling in a mouse model of rheumatoid arthritis was tested in the following experiment. In this model, serum from arthritic mice (K/B×N) is injected into normal wildtype mice. […] Mice were treated topically with MC903 or EtOH (daily) and injected with arthritogenic serum (on Days 0 and 2).

Compound: C=C1/C(=C\C=C2/CCC[C@]3(C)[C@@H]([C@H](C)/C=C/[C@@H](O)C4CC4)CC[C@@H]23)C[C@@H](O)C[C@@H]1O [MC903, 26,27-cyclo-22-ene-1α,24S-dihydroxyvitamin D3]
- effect on Tregs (spleen) when injected intraperitoneally ([1]; intraperitoneal injection): No effect
- increase in the fraction of Tregs (% Foxp3+ of CD4+ T cells) in treated ear skin ([1]; topical once a day on one ear for 7 days, Day 8, compared to EtOH-treated side): about 2 fold
- overnight fasting glucose levels (C57BL6 mice): improved overnight fasting glucose levels
- time of peak of circulating TSLP levels [2]: 6 days
- systemic Treg numbers (Tregs): increase systemic Treg numbers
- clinical severity of EAE (B6 mice [3]): attenuated clinical severity
- joint swelling and erythema after Day 7 (B6 mice [4]; concomitant with the elevated Treg percentages): quick reduction
- circulating Treg levels (B6 mice [4]; mice injected with arthritogenic serum, topical daily): increased
